Test results published in patent publication US8329160B2, “Interferon alpha sequential regimen for treating cancers” (HI-Stem, priority 2007, dated 2012).

Legend:
[1] = system: HSCs; assay: Survival of mice under repeated 5FU after polyIC priming (IFN alpha pulse); format: in vivo
Protocol: Wild-type C57B1/6 and IFNAR−/− mice were treated as follows: mice were injected with […] mouse polyIC (Invivogen) twice (polyIC is a double stranded RNA mimetic strongly inducing IFNα/b), the lag time between the two injections being 48 h. PolyIC injections are used in this experiment as IFN alpha “pulse”. Mice that were only treated with 5FU without priming injections of polyIC were used as controls.
5-Fluoro-uracil (5FU) was injected (150 mg/kg, Sigma) at different times after the last polyIC injection: 0 h (same time as last polyIC injection); 24 h, 48 h, 72 h, 5 days and 7 days. The proliferation rate of cells at time of 5FU injection was analyzed by BrdU analysis of KLS cells as described in the above examples. Single 5FU injections were repeated every 7 days. The survival of the mice was monitored for a period of 20 days.

[2] = system: HSCs; assay: Mixed bone marrow chimeras (wt / IFNAR-/-), BrdU uptake in LSK cells; format: in vivo, mice; conditions: IFNα 10×10^3 U/mouse
Protocol: The different mice were treated with IFNα (10×103 U/mouse) in comparison with untreated wt mice (C) as described in Example 3. FIG. 2B represents the BrdU uptake in wt (CD45.1) and IFNAR−/− (CD45.2) LSK cells in the mixed bone marrow chimeras in response to treatment with IFNα.
To investigate whether HSCs respond directly to IFNα in vivo, mixed bone marrow “chimeras” comprising various ratios of wild-type (wt) and IFNAR−/− (IFNRKO) bone marrow cells were treated with IFNα (10×10^3 U/mouse) in comparison with untreated wt mice (C) (FIG. 2A).

[3] = system: hematopoietic stem cells (HSCs) (lineage-CD117+Sca1+); assay: BrdU uptake (proliferation rate) of KLS hematopoietic stem cells in treated mice; format: in vivo
Protocol: Wild-type C57B1/6 mice were treated with IFNα which was obtained as decribed in the literature (Le Bon et al., 2003, Nat. Immunol. 4(10):1009-15). at 0 h and 24 h, respectively with 10×10^3 U/mouse, and were then treated at 36 h with Bromodeoxyuridine (BrdU) at 360 μg/mouse for cell detection. Mice which were only injected with BrdU were used as control. Bone marrow was then taken from the long bones of hindlegs and prepared by standard procedures (Wilson et al., 2004, Genes & Dev 18; 2747-2763). Bone marrow cells were then stained with a cocktail of conjugated antibodies (Bioscience) against mice lineage markers (CD4, CD8, CD11b, Gr1, Ter119, B220), CD117 (c-kit), Sca1 (Ly-6A/E), CD34, CD135, CD48 or CD150). Cells were then fixed. BrdU uptake was analyzed using the BrdU staining kit (BD Biosciences).
Five and six-color flurorescent-activated cell sorting (FACS) analysis (FITC, PE, PE-Cy5, PE-Cy7, APC, APC-Cy7) were performed using a FACS Canto flow cytometer (Becton Dickinson) as described in the literature (Wilson et al., 2004, above). Data were analyzed using FlowJo (Tree Star, Inc.; Ashland, USA software).
Percentages of BrdU positive KLS-HSCs cells (lineage CD117+Sca1+) were determined as a measurement of the proliferation rate of these cells. The same BrdU analyses were performed on subpopulations of HSCs.

[4] = system: dormant HSCs (KLS CD150+CD48-CD34-); assay: BrdU pulse-chase, label-retaining (dormant) long-term HSCs; format: in vivo, mice
Protocol: After a period of permanent BrdU labeling for 10 days, mice were kept without BrdU for 70 days. 14 days before the analysis, the mice were either treated three times with polylC or with PBS. 10 days later (and 70 days after the last BrdU injection) three HSC populations containing an increasing percentage of dormant HSCs were isolated and analysed for the presence of BrdU+label-retaining cells (LRCs), which represent dormant HSCs.
C57B1/6 mice and IFNAR−/− mice were given BrdU (0.8 mg/ml; Sigma) in the drinking water for 10 days. After this BrdU pulse, mice were left for a chase of 10 weeks. Then, mice were twice injected with IFNα at a concentration of 10×10^3 U/mouse each (48 h gap between the 2 injections) or left untreated. BrdU uptake was then analyzed 10 days after the last IFNα injection. After this BrdU pulse-chase experiment in wild-type mice, about 15% of the long-term HSCs (KLS CD150+CD48−CD34−) are still labeled with BrdU (label retaining cells-LRCs). […] This was not the case with long-term HSCs lacking the IFN-receptor (in IFNAR−/− mice) showing that this effect is indeed mediated by Interferon signaling (FIG. 1D).

`O=c1[nH]cc(F)c(=O)[nH]1` [5FU, 5-Fluoro-uracil] was tested, and the “survival of mice under repeated 5FU treatment without polyIC priming” value ([1]; 5FU 150 mg/kg every 7 days, 20 days) was “do survive”.
With IFNα the “activation of HSCs in mixed wt / IFNAR-/- bone marrow chimeras” value [2] was “direct and an indirect activation”, the “dose dependence of increase in proliferation” value ([3]; different doses of IFNα (U/g of mouse)) was “dose-dependent” and the “proliferation in subpopulations of HSCs (long-term HSCs, short-term HSCs, MPPs)” value ([3]; wild-type C57B1/6 mice, after IFNα treatment) was “increase in proliferation in all subpopulations of HSCs”. The “proliferation rate of HSCs (percentage of BrdU positive KLS cells)” value ([3]; wild-type C57B1/6 mice, IFNα 10×10^3 U/mouse at 0 h and 24 h, BrdU at 36 h, untreated control 23%) was 63%, the “absolute cell numbers of HSCs” value ([3]; wild-type mice, after IFNα treatment) was “increase in absolute cell numbers” and the “reduction of LRC+ long-term HSCs (activation of dormant HSCs)” value ([4]; IFNAR-/- mice (HSCs lacking the IFN-receptor)) was “not the case”. The “number of LRC+ long-term HSCs (BrdU label retaining cells)” value ([4]; wild-type mice, 2 injections IFNα 10×10^3 U/mouse 48 h apart, analysed 10 days after last injection, untreated about 15% LRC) was “dramatically reduced”.
polyIC [reference compound] was tested, and the “effect of polyIC priming on survival under 5FU” value ([1]; IFNAR-/- mice) was “no effect on the survival”, the “survival of mice (lethality by elimination of all HSCs)” value ([1]; wild-type C57B1/6, polyIC twice (48 h apart) prior to 5FU 150 mg/kg repeated every 7 days, 20 days monitoring) was “efficient lethality” and the “increase of HSC proliferation rate (BrdU uptake)” value ([3]; IFNAR-/- mice, polyIC once at 10 μg/g) was “not seen”. The “percentage of BrdU+-LRCs in HSC populations” value ([4]; mice treated three times with polyIC vs PBS, 70 days after last BrdU) was “strongly reduced”.
